Results as given in publication PMC4310642 (Journal of Medicinal Chemistry, 2014).

Tests used:
[1] = biological target: PKCδ C1b domain N7R/S10R/L20R triple mutant (Mus musculus, UniProt P28867, L250R/N237R/S240R); test: Competitive [20-3H]PDBu binding to GST-C1b domain, N7R/S10R/L20R
[2] = biological target: PKCδ C1b domain P11R mutant (Mus musculus, UniProt P28867, P241R); test: Competitive [20-3H]PDBu binding to GST-C1b domain, P11R
[3] = biological target: PKCδ C1b domain N7R mutant (Mus musculus, UniProt P28867, N237R); test: Competitive [20-3H]PDBu binding to GST-C1b domain, N7R
Chain of PKCδ C1b domain N7R mutant (P28867 230-280 N237R): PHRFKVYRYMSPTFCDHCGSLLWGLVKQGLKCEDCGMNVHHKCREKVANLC

[4] = system: PKCδ C1b domain S10R mutant; assay type: binding

Chain of PKCδ C1b domain P11R mutant (P28867 230-280 P241R): as the sequence (P28867 230-280 N237R) above, with R8N, P12R counted along it
Chain of PKCδ C1b domain N7R/S10R/L20R triple mutant (P28867 230-280 N237R/S240R/L250R): as the sequence (P28867 230-280 N237R) above, with S11R, L21R counted along it

| Compound | reduction in binding affinity with the triple mutant N7R/S10R/L20R compared to the wild-type [1] | binding to P11R weaker than to the wild-type δC1B domain [2] | binding to N7R weaker than to the wild-type δC1B domain [3] | binding to S10R compared to the wild-type δC1B domain [4] |
| --- | --- | --- | --- | --- |
| CC(C)CC(C/C=C1\CC(CO)(COC(=O)C(C)(CO)CO)OC1=O)CC(C)C (stereo not shown) [13-E] | no further loss of affinity | – | – | – |
| CCCC(=O)O[C@@H]1[C@@H](C)[C@@]2(O)[C@@H](C=C(CO)C[C@]3(O)C(=O)C(C)=C[C@@H]23)[C@@H]2C(C)(C)[C@]12OC(=O)CCC [PDBu, phorbol 12,13-dibutyrate] | – | about 5 fold | about 5 fold | essentially the same |
